Experimental data reported in a melting point compilation (Tetko et al.; mined from patent text by program, amines drawn as free bases though some values may be those of a salt).

First: Cn1c(=O)[nH]c2cc(F)ccc21
Second: CC1CC(N)(C(=O)O)c2cc(F)ccc2O1 (mixture of isomers)
The melting point of the first is higher: 207 °C for the first, 153 to 156 °C for the second.

First: NNC(=O)c1c(OCC(F)(F)F)cccc1OCC(F)(F)F
Second: COC(=O)c1nccnc1Oc1ccccc1C(F)(F)F
The melting point of the first is higher: 153 to 154 °C for the first, 83 to 85 °C for the second.

First: Cc1cc(NC(=S)NC(=O)c2ccccc2Cl)ccc1-n1cccc1
Second: O=C(NCCO)c1cccc(-c2cccc3nn(Cc4ccccc4)cc23)c1
The melting point of the first is lower: 134 to 136 °C for the first, 166 to 167 °C for the second.

First: CCOC(=O)C(=CNc1ccnn1CC)C(=O)OCC
Second: CCCCOC(=O)c1cnc(C(=O)O)c(OC)c1
The melting point of the first is lower: 50 to 53 °C for the first, 96 to 98 °C for the second.

Compared with `COc1cc(-n2cnnc2I)ccc1C`, `COc1ccc2c(c1)c(-c1cc3c(-c4cccnc4)ccnc3[nH]1)cn2C` is higher in melting point: 123 °C for the first, 248 to 249 °C for the second.

First: C/C(=C\C(C)O)c1ccc(C2CCCCC2)cc1 (stereo unspecified)
Second: CS(=O)(=O)c1ccc(C(CC2CCCC2)C(=O)Nc2ccc(Br)cn2)cc1Br (stereo unspecified)
The melting point of the first is lower: 67.5 to 68 °C for the first, 83 to 86 °C for the second.

Compared with `Fc1cc(F)c2[nH]c(-c3ccccc3)c(CCN3CCCCC3)c2c1`, `Cc1cn(C)c2c1N(C(=O)CN1CCCC1)c1ccccc1NC2=O` is higher in melting point: 185 to 187 °C for the first, 210 to 212 °C for the second.

First: COC(=O)c1ccc(CN2CCCc3cc4c(cc32)C(C)(C)CCC4(C)C)cc1
Second: CN1C(=O)CC[C@]2(C)c3ccc(-c4ccc(C#N)cc4)cc3CC[C@@H]12
The melting point of the first is higher: 173 to 175 °C for the first, 148 to 150 °C for the second.

First: COc1cc(C=O)ccc1OCCN1c2ccccc2Sc2ccccc21
Second: COc1ccc2[nH]c(/C(=C/c3ccccc3)c3ccccc3)cc2c1
The melting point of the first is lower: 130 °C for the first, 144 to 147 °C for the second.

First: CCCCOc1ncc(C(C)=O)cc1-c1nn2c(CC)nc(C)c2c(=O)[nH]1
Second: CCOC(=O)c1c(CN(CC)CC)nc2sc3c(c2c1-c1ccc(OC)c(OC)c1)CCN(S(=O)(=O)c1ccccc1)C3
The melting point of the first is higher: 190 to 196 °C for the first, 161 to 162 °C for the second.

Compared with `ON=C1CCn2c(-c3ccccc3)nc3c(Cl)ccc1c32`, `N#Cc1ccc(Cl)c(N=Cc2ccccc2O)c1` is lower in melting point: 251 to 252 °C for the first, 147 to 148 °C for the second.

First: OCC1OC(n2cnc3c(NCC4Cc5cccc6cccc4c56)ncnc32)C(O)C1O (stereo unspecified)
Second: COc1ccc(CNc2cc3c(Nc4ccc(Cl)c(Cl)c4)ncnc3cn2)cc1
The melting point of the first is lower: 173 to 175 °C for the first, 209 to 211 °C for the second.

First: CCCn1nnn(-c2cc(Cl)c(Cl)cc2Cl)c1=O
Second: CCN(CC)CCNC(=O)c1cc(Cl)c(N)cc1O
The melting point of the first is lower: 89 to 90 °C for the first, 134 to 136 °C for the second.

First: CCOC(=O)Nc1cccc(C(=O)CBr)c1
Second: O=C(Nc1cccc(-c2ccnc3c(C(=O)c4cccs4)cnn23)c1)OCC(Cl)(Cl)Cl
The melting point of the first is lower: 108 to 110 °C for the first, 197 to 200 °C for the second.

Compared with `Cc1nc(-c2ccc(C(=O)N3Cc4cccn4Cc4ccccc43)cc2)n(C)n1`, `CCNC(=O)c1ccc(-c2ccc3c(c2)C(Nc2ccc(Cl)cc2)CC(C)N3C(C)=O)cc1` (stereo unspecified) is lower in melting point: 193 to 195 °C for the first, 134 °C for the second.

First: Fc1ccc(-n2ccc3cc(-c4ccccn4)ccc32)cc1
Second: O=C1CC(c2cccc(-n3ccnc3)c2)=Nc2ccc(-c3cccc(F)c3)cc2N1
The melting point of the first is lower: 119 to 121 °C for the first, 200 to 201 °C for the second.

First: COc1ccc(C(=O)C=Cc2ccccc2O)c(OC)c1OC
Second: COc1ccccc1Oc1c(NS(=O)(=O)c2ccc(C)cn2)nc(-c2cccc(O)c2)nc1OC
The melting point of the first is lower: 123 °C for the first, 211 to 216 °C for the second.

First: CCc1c(-c2ccc(OC)cc2)cn2ccc(OC)cc12
Second: COc1ccc(Nc2ccc(OCc3ccccc3)cc2)c(CO)c1
The melting point of the first is higher: 101 to 103 °C for the first, 100 to 101 °C for the second.

First: Nc1nc(Cl)c2[nH]c(=O)n(CCCCO)c2n1
Second: CCC(CC)n1c(=O)ccc2cnc(S(C)=O)nc21 (stereo unspecified)
The melting point of the first is higher: 222 to 225 °C for the first, 111 to 114 °C for the second.

First: CC(O)c1cc2c(OCC(O)CN3CCC(c4ccc5ccccc5c4)CC3)cccc2o1 (stereo unspecified)
Second: O=C(COc1ccc2ccccc2c1)Nc1ccc(C(=O)C(=O)O)cc1
The melting point of the first is lower: 143 to 144 °C for the first, 215 to 216 °C for the second.

First: O=C1N=Nc2ccccc21
Second: OCCCc1nc(-c2ccccc2)co1
The melting point of the first is higher: 232 to 233 °C for the first, 55 to 56 °C for the second.

Compared with `N#CCON=C(C(=O)O)c1csc(NC(c2ccccc2)(c2ccccc2)c2ccccc2)n1`, `CCN(CC)C(=O)COc1cc2ccccc2c(-c2ccccc2)n1` is lower in melting point: 180 °C for the first, 105 °C for the second.

Compared with `CC(=O)OCC1OC(c2nc(C(N)=O)cs2)C(OC(C)=O)C1OC(C)=O` (stereo unspecified), `CCOC(=O)C1=C(COC2CCNCC2)NC(C)=C(C(=O)OC)C1c1ccccc1Cl` (stereo unspecified) is higher in melting point: 103 °C for the first, 175 to 176 °C for the second.

First: O=C1CCC(c2ccc(Cl)cc2)c2ccccc2N1 (stereo unspecified)
Second: CCOC(=O)c1c(-c2ccc(F)cc2)c2ccccc2[nH]c1=O
The melting point of the first is higher: 209 to 212 °C for the first, 204 to 206 °C for the second.

First: COc1c(Cl)cc(NC(=O)OC(C)(C)C)cc1Cl
Second: COc1c(F)ccc2c(C3CCN(C(=O)OC(C)(C)C)CC3)noc12
The melting point of the first is higher: 115 to 116 °C for the first, 94 to 96 °C for the second.

First: COc1c(CCc2ccc(F)cc2)cc(Cl)cc1C(N)=O
Second: COc1ccc(Cl)cc1C1(F)C(=O)Nc2ccc(F)cc21 (stereo unspecified)
The melting point of the first is lower: 85 °C for the first, 205 to 207 °C for the second.

First: CCOC(=O)c1cn(CCBr)c2nc(N3CCN(C(C)=O)CC3)ncc2c1=O
Second: COc1c(N2CCC(n3cc(C)nn3)C2)c(F)cc2c(=O)c(C(=O)O)cn(C3CC3)c12 (stereo unspecified)
The melting point of the first is higher: 202 to 204 °C for the first, 174 to 176 °C for the second.

First: CC(C)[Si](C(C)C)(C(C)C)C1(CO)c2ccccc2-c2ccccc21
Second: N#CC1CCN1C(c1ccccc1)c1ccccc1 (stereo unspecified)
The melting point of the first is higher: 106 to 108 °C for the first, 104 to 105 °C for the second.

`O=C(NCc1ccccn1)Nc1cc(N2C(=O)CCc3ccccc32)ccn1` and `COc1cccc(-n2c3c(c(=O)c4cccnc42)CCO3)c1` cannot be ordered by melting point: 194 to 195 °C for the first, 194 to 196 °C for the second.

Compared with `OCc1sc(Cl)nc1C(F)(F)F`, `CCOC(=O)c1cnn2c(C3CC3)cc(-c3ccc(C(F)(F)F)cc3)cc12` is higher in melting point: 39 to 45 °C for the first, 117 °C for the second.

Compared with `CC(C#CC1=C(C)C(=O)C(O)CC1(C)C)=CCO` (stereo unspecified), `CCOC(=O)C1=C(C)N(C(C)=O)C(c2csc(C)n2)=NC1c1ccc(Cl)cc1` (stereo unspecified) is higher in melting point: 84 to 86 °C for the first, 169 to 171 °C for the second.

Compared with `O=C1NC(=O)c2c1c(-c1cc([N+](=O)[O-])ccc1O)cc1[nH]c3ccc(O)cc3c21`, `CN1CCC(NC(c2cccc([N+](=O)[O-])c2)c2nc3ccccc3[nH]2)CC1` (stereo unspecified) is lower in melting point: over 330 °C for the first, 254 °C for the second.

Compared with `CCC(C)Nc1ccc([N+](=O)[O-])cc1[N+](=O)[O-]` (stereo unspecified), `O=[N+]([O-])c1cccc(S(=O)(=O)NC(CO)(CO)CO)c1` is higher in melting point: 53 to 55 °C for the first, 98 to 99 °C for the second.

Compared with `O=C1NCC(Cc2ccc3c(c2)OCO3)O1` (stereo unspecified), `O=C1Nc2cc3c(cc2O[C@H]1CCCO)CCCC3` is higher in melting point: 98.5 to 100 °C for the first, 139 to 140 °C for the second.

Compared with `NC(=CC(=O)C1CC1)c1ccncc1`, `Cc1ccc(C=CC(=O)O)cn1` is higher in melting point: 159 to 166 °C for the first, 214 to 216 °C for the second.

First: CCc1cc2c(O)c(C(=O)O)cnc2s1
Second: COc1c(N2CC(O)C2)c(F)cc2c(=O)c(C(=O)O)cn(C3CC3)c12
The melting point of the first is lower: 238 to 239 °C for the first, 246 to 250 °C for the second.

First: COc1cc(COc2ncccc2C=O)ccc1OCc1nc(-c2ccco2)oc1C
Second: COc1ccc(COc2cc(NC(C)=O)c(Cl)cc2C(=O)CCCCCl)cc1OC
The melting point of the first is lower: 120 to 121 °C for the first, 147 °C for the second.

Compared with `CC(C)Cc1[nH]c(=O)[nH]c1-c1cc(C(C)(C)C)c(O)c(C(C)(C)C)c1`, `Cc1cccc(C)c1NC(=O)CCS(=O)(=O)c1cc(C(C)(C)C)c(O)c(C(C)(C)C)c1` is lower in melting point: 286 to 289 °C for the first, 218 to 219 °C for the second.

First: C=C1C[C@@H](O)[C@H](/C=C/[C@@H](O)CCCCC)[C@H]1Cc1cccc(OCc2ccccc2)c1
Second: CCOC(=O)c1cc(NCc2ccccc2)c(Sc2ccccc2C)c(S(N)(=O)=O)c1
The melting point of the first is lower: 58 °C for the first, 166 to 167 °C for the second.

First: Cc1cccc(N(C)C(=O)c2cc(=O)n(C)c3ccc(C(O)(c4ccc(Cl)cc4)c4cncn4C)cc23)c1 (stereo unspecified)
Second: N#Cc1cnc2sc(-c3cccc(C=O)c3)cc2c1Nc1ccc2[nH]ccc2c1
The melting point of the first is lower: 185 °C for the first, 221 to 223 °C for the second.

First: COC(=O)c1cc(N)c(F)cc1Cl
Second: COC(=O)c1nc(-c2ccc([Si](C)(C)C)cc2F)c(F)c(N)c1OC
The melting point of the first is lower: 76 to 78 °C for the first, 127 to 129 °C for the second.

Compared with `CSc1ccc(N2CCN(c3c(C)c(C)c4c(c3C)CC(C)(C)O4)CC2)cc1`, `Cc1c(O)c2c(c(C)c1NC(=O)CC(C)(C)C)[C@@H](c1ccc(C(C)C)cc1)CO2` is lower in melting point: 211 to 213 °C for the first, 181 to 182 °C for the second.

`O=C1NC(N2CCCCCC2)=N/C1=C\c1c[nH]c2ncc(C(F)(F)F)cc12` and `CS(=O)(=O)Nc1cc(C(O)CNC2CCN(c3ccc(C=C4SC(=O)NC4=O)cc3Br)CC2)ccc1O` (stereo unspecified) cannot be ordered by melting point: 340 °C for the first, over 200 °C for the second.

Compared with `CCC(CC)(CC)NC(=S)Nc1cc(Cl)cc(Cl)c1`, `COc1cccc(C(CNC(=O)Cc2c(Cl)cncc2Cl)C(C)C)c1` (stereo unspecified) is lower in melting point: 152 to 154 °C for the first, 94 to 95 °C for the second.

First: CN(C)CCc1[nH]c2ccccc2c1CC#N
Second: CCOC(=O)C1CC1c1cc(=O)c2ccc3ccccc3c2o1 (stereo unspecified)
The melting point of the first is higher: 122 to 127 °C for the first, 106 °C for the second.

First: Nc1cnn2c1NCC2
Second: Cn1c([N+](=O)[O-])cnc1C(N)=S
The melting point of the first is higher: 177 to 179 °C for the first, 148 to 150 °C for the second.

`CC(C)(CO)CCCCCCCCCCCC(O)(CC(=O)O)CC(=O)O` and `CC(C)(C)OC(=O)N1CCCC(CO)(c2ccccc2)C1` (stereo unspecified) cannot be ordered by melting point: 102 to 103 °C for the first, 101 to 104 °C for the second.

First: O=C(c1cc2cc3[nH]c(=O)oc3cc2[nH]1)N1CCC(Cc2ccc(F)cc2)CC1
Second: O=c1[nH]c2nc(SCc3ccccc3)ncc2cc1Oc1ccc(F)cc1F
The melting point of the first is higher: 244 to 247 °C for the first, 240 to 244 °C for the second.

Compared with `O=[N+]([O-])c1ccc(NCCSCc2c[nH]cn2)nc1`, `O=C(O)c1cccc2nc3ccc4[nH]ncc4c3nc12` is higher in melting point: 145 to 147 °C for the first, 305 to 310 °C for the second.

Going from `O=c1[nH]c2sc3ccc(Br)cc3c2[nH]c1=O` to `Fc1ccc2c(c1)CCc1cccnc1C2=C1CCNCC1`, the melting point falls from over 320 °C to 134 °C.

`c1ccc2c(c1)Sc1ccccc1N2c1ccc(-n2ccnc2-c2nccn2-c2ccc(N3c4ccccc4Sc4ccccc43)cc2)cc1` gave a melting point of 227 to 232 °C.
